Experimental data as given in patent US9661856B1, “Synergy of plant antimicrobials with silver” (The Arizona Board of Regents on behalf of the University of …, priority 2012, dated 2017).

What was measured:
[1] = test system: Escherichia coli strain 25922; test: Reduction of Escherichia coli in PBS after exposure to plant antimicrobials with and without silver (spread plate count); format: cell-based; conditions: for effect of combination with silver ions on antimicrobial activity against E. coli: plant antimicrobial combined with silver ions in solution; for reduction with silver alone treatment (in words): 100 ppb silver alone, within 30 min of exposure
Description: Escherichia coli strain 25922 was obtained from the American Type Culture Collection (ATCC; Manassas, Va., USA) and was maintained on Tryptic Soy Agar (TSA; Difco, Sparks, Md., USA) with incubation for 18 to 24 h at 37° C. Prior to the start of each experiment, an Erlenmeyer flask containing 100 ml of Tryptic Soy Broth (TSB; Difco, Sparks, Md., USA) was inoculated with the organism and incubated on an orbital shaker (Model […]; New Brunswick Scientific, Edison, N.J., USA) at 300 rpm at 37° C. overnight. […] Beckman Coulter, Inc., Fullerton, Calif., USA). The pelleted cells were washed by re-suspension in 100 ml of physiological saline (0.85% NaCl) followed by centrifugation as described previously. This step was repeated one additional time. The final pellet was resuspended in 10 ml of sterile phosphate buffered saline (PBS; pH 7.4; Sigma-Aldrich, St. Louis, Mo., USA). […] A stock solution of silver (Ag) ions was prepared immediately prior to the start of each experiment by adding AgNO3 (J.T. Baker, Phillipsburg, N.Y., USA) to distilled water to obtain an Ag ion concentration of 100 mg/l (100 ppm). The Ag concentration was measured at the beginning of each experiment by a colorimetric procedure using a Hach DR/2000 spectrophotometer (Anonymous 1989). […] (Berkley, Calif., USA). […] Louis, Mo., USA). The plant antimicrobials were dissolved and diluted (volume to volume) to specific test concentrations using PBS. […] A control with E. coli in PBS but no added antimicrobials was also included. Purified stocks of the bacteria were added separately to the antimicrobial solutions (final concentration of […]) and the flasks were placed on an orbital shaker (300 rpm) for the duration of the experiment. Experiments were performed in triplicate at room temperature (24° C.) in 50 ml polypropylene conical tubes (Becton, Dickinson and Company, Franklin Lakes, N.J., USA). At predetermined time intervals, 100 μl samples were collected and neutralized with Dey Engley (D/E) neutralizing broth (Difco, Sparks, Md., USA) at a ratio of 1:10. The D/E is neutralizes the antimicrobial effect of silver whereas the plant antimicrobials are neutralized via dilution. Samples were assayed for bacterial enumeration immediately. Bacterial samples were ten-fold serially diluted in physiological saline as needed and the surviving bacteria were enumerated using the spread plate method on duplicate plates of Levine Eosin Methylene Blue Agar (EMB; Becton, Dickinson and Company, Franklin Lakes, N.J., USA). The plates were incubated at 37° C. for 24 hours and the surviving bacterial colonies were counted. Data were reported as logarithmic reduction using the formula […], where N0 was the concentration of E. coli at time zero and Nt was the surviving concentration at time t. A Student's t-test was used to determine if there were significant differences between the control and the antimicrobial treatments (the reductions were compared to the control after 30 min) or between the various treatments (for each exposure time).

[2] = humans; based on epidemiological and pharmacokinetic data (WHO); cited from earlier work

O=C/C=C/c1ccccc1 [Cinnamaldehyde]
exposure time within which the reduction was statistically significant (P≦0.05) compared to the control ([1]; 0.05% citral, 0.02% carvacrol or 0.1% cinnamaldehyde, alone or with 100 ppb Ag, PBS): ≤ 20 min
Reduction (Log10 ± standard deviation) in the population of Escherichia coli ([1]; Table 3, 1 min, 0.1% cinnamaldehyde (vol/vol), silver 100 ppb, PBS, inoculum 2.1 × 10^7 CFU/ml): 0.05 ± 0.04 Log10
Reduction (Log10 ± standard deviation) in the population of Escherichia coli ([1]; Table 3, 5 min, 0.1% cinnamaldehyde (vol/vol), silver 100 ppb, PBS, inoculum 2.1 × 10^7 CFU/ml): 0.18 ± 0.04 Log10
Reduction (Log10 ± standard deviation) in the population of Escherichia coli ([1]; Table 3, 10 min, 0.1% cinnamaldehyde (vol/vol), silver 100 ppb, PBS, inoculum 2.1 × 10^7 CFU/ml): 0.17 ± 0.07 Log10
Reduction (Log10 ± standard deviation) in the population of Escherichia coli ([1]; Table 6, cinnamaldehyde 0.1% (vol/vol) in PBS, 1 min, inoculum 2.1 × 10^7 CFU/ml): 0.05 ± 0.04 Log10
effect of combination with silver ions on antimicrobial activity against E. coli [1]: enhanced or synergistic

[Ag+] [Silver]
No Observable Adverse Effect Level (NOAEL), lifetime limit of silver [2]: 10 g
reduction with silver alone treatment (in words) [1]: no reductions were observed
reduction with silver alone treatment (in words) ([1]; listed as Ag): No significant reductions
Reduction (Log10 ± standard deviation) in the population of Escherichia coli ([1]; Table 1, 30 min, 0.05% citral (vol/vol), silver 100 ppb, PBS, inoculum 1.7 × 10^7 CFU/ml): 0.01 ± 0.04 Log10
Reduction (Log10 ± standard deviation) in the population of Escherichia coli ([1]; Table 2, 5 min, 0.02% carvacrol (vol/vol), silver 100 ppb, PBS, inoculum 2.9 × 10^7 CFU/ml): 0.08 ± 0.12 Log10
Reduction (Log10 ± standard deviation) in the population of Escherichia coli ([1]; Table 2, 10 min, 0.02% carvacrol (vol/vol), silver 100 ppb, PBS, inoculum 2.9 × 10^7 CFU/ml): 0.00 ± 0.06 Log10
Reduction (Log10 ± standard deviation) in the population of Escherichia coli ([1]; Table 2, 30 min, 0.02% carvacrol (vol/vol), silver 100 ppb, PBS, inoculum 2.9 × 10^7 CFU/ml): 0.00 ± 0.04 Log10
Reduction (Log10 ± standard deviation) in the population of Escherichia coli ([1]; Table 3, 30 min, 0.1% cinnamaldehyde (vol/vol), silver 100 ppb, PBS, inoculum 2.1 × 10^7 CFU/ml): 0.12 ± 0.10 Log10
Reduction (Log10 ± standard deviation) in the population of Escherichia coli ([1]; Table 4, 1 min, 0.5% allspice oil (vol/vol), silver 100 ppb, PBS, inoculum 6.6 × 10^6 CFU/ml): 0.00 ± 0.03 Log10
Reduction (Log10 ± standard deviation) in the population of Escherichia coli ([1]; Table 4, 5 min, 0.5% allspice oil (vol/vol), silver 100 ppb, PBS, inoculum 6.6 × 10^6 CFU/ml): 0.00 ± 0.08 Log10
Reduction (Log10 ± standard deviation) in the population of Escherichia coli ([1]; Table 4, 10 min, 0.5% allspice oil (vol/vol), silver 100 ppb, PBS, inoculum 6.6 × 10^6 CFU/ml): 0.00 ± 0.12 Log10
Reduction (Log10 ± standard deviation) in the population of Escherichia coli ([1]; Table 4, 20 min, 0.5% allspice oil (vol/vol), silver 100 ppb, PBS, inoculum 6.6 × 10^6 CFU/ml): 0.00 ± 0.23 Log10
Reduction (Log10 ± standard deviation) in the population of Escherichia coli ([1]; Table 4, 30 min, 0.5% allspice oil (vol/vol), silver 100 ppb, PBS, inoculum 6.6 × 10^6 CFU/ml): 0.29 ± 0.32 Log10

Cc1ccc(C(C)C)cc1O [Carvacrol, carvacrol]
effect of combination with silver ions on antimicrobial activity against E. coli [1]: enhanced or synergistic

CC(C)=CCCC(C)=CC=O [Citral]
Reduction (Log10 ± standard deviation) in the population of Escherichia coli ([1]; Table 1, 1 min, 0.05% citral (vol/vol), silver 100 ppb, PBS, inoculum 1.7 × 10^7 CFU/ml): 0.06 ± 0.03 Log10
effect of combination with silver ions on antimicrobial activity against E. coli [1]: enhanced or synergistic
